Assay results: US10899738B2 (THE REGENTS OF THE UNIVERSITY OF MICHIGAN, priority 2016, dated 2021)
Where two headings read alike, the source gives them in different places.

Key:
[1] = Cell growth inhibition, CellTiter-Glo Luminescent Cell Viability Assay; format: cell-based
Procedure: Cell growth inhibitory activity of representative menin inhibitors was determined using CellTiter-Glo® Luminescent Cell Viability Assay. Cells were seeded in 384-well white opaque cell culture plates at a density of 2,000 cells/well with serially diluted compounds and incubated at 37° C. in an atmosphere of 95% air and 5% CO2 for 4 days. Cell viability was determined using the CellTiter-Glo® Luminescent Cell Viability Assay Kit (Promega, Madison, Wis.) according to the manufacture's instruction. Briefly, a volume of CellTiter-Glo® Reagent equal to the volume of cell culture medium was added to each well, and then the plates were incubated at room temperature for 10-20 minutes. The luminescent signal was measured using a Tecan Infinite M1000 multimode microplate reader (Tecan, Morrisville, N.C.). The half maximal inhibitory concentration (IC50) was calculated using the GraphPad Prism 5 software (GraphPad Software, La Jolla, Calif.).

[2] = molecular target: menin protein (Homo sapiens (Human), UniProt O00255); assay: biochemical; format: binding; settings: FP competitive binding; menin protein 4 nM, FAM-MM2 probe 2 nM; read-out: Menin Binding Affinity IC50
How it was run: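 Competitive fluorescence polarization assay using FAM-labelled MLL1 peptide probe FAM-MM2 (2 nM final) preincubated with menin (4 nM final) in PBS with 0.02% bovine γ-globulin, 4% DMSO and 0.01% Triton X-100. Compounds were added and incubated 30 min at room temperature. IC50 came from nonlinear regression of competition curves, with Ki also derived.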

[3] = MOLM-13, 96 h, MOLM13 cells, 4 days, CellTiter-Glo, read-out: Cell Growth Inhibition IC50 (μM) MOLM13
[4] = MV4-11, 96 h, MV4, 11 cells, 4 days, CellTiter-Glo, read-out: Cell Growth Inhibition IC50 (μM) MV4, 11
[5] = MOLM-13, 96 h, read-out: Cell Growth Inhibition IC50 (μM) MOLM13, MOLM13 cells, 4 days, CellTiter-Glo
[6] = MV4-11, 96 h, read-out: Cell Growth Inhibition IC50 (μM) MV4, 11, MV4, 11 cells, 4 days, CellTiter-Glo

menin protein, sequence (O00255 whole entry): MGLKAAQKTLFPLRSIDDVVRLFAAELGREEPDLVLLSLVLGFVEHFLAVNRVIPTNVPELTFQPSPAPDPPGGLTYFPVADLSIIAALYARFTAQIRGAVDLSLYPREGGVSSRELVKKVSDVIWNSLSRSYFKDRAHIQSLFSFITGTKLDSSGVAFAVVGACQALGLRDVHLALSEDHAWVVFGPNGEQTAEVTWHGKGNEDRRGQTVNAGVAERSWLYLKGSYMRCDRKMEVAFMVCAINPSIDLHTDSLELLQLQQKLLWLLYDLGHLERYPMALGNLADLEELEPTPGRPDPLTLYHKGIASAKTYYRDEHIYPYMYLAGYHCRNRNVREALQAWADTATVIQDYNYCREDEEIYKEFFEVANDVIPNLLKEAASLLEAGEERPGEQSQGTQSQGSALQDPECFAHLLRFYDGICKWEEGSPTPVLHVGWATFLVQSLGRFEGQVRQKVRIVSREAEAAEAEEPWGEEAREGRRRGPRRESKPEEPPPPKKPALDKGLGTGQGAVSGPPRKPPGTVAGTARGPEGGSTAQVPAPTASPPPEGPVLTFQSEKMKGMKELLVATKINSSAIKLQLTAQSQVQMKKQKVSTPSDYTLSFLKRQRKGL

SMILES	IC50 [1, 3]	IC50 [1, 4]	IC50 [2]	IC50 [1, 5]	IC50 [1, 6]
O=S(=O)(c1ccccc1)c1ccc(N2CC(CN3CCC(C4(C5CCCC5)NCCc5ccccc54)CC3)C2)cc1 (stereo not drawn) [compound 149, 1-cyclopentyl-1-(1-((1-(4-(phenylsulfonyl)phenyl)azetidin-3-yl)methyl)piperidin-4-yl)-1,2,3,4-tetrahydroisoquinoline]	0.331 µM	0.493 µM	12 nM		
COC(=O)N[C@H]1CCC[C@@H]1C(C#N)(c1ccccc1)C1CCN(CC2CN(c3ccc(S(=O)(=O)c4ccc(F)cc4)cc3)C2)CC1 (mixture of isomers) [compound 394, methyl rac((1S,2R)-2-(cyano(1-((1-(4-((4-fluorophenyl)sulfonyl)phenyl)azetidin-3-yl)methyl)piperidin-4-yl)(phenyl)methyl)cyclopentyl) carbamate]			15 nM	1.94 µM	0.43 µM
N#CC(c1ccccc1)(C1CCN(CC2CN(c3ccc(S(=O)(=O)c4ccccc4)cc3)C2)CC1)[C@H]1CCC[C@@H]1OC(N)=O (mixture of isomers) [compound 223, rac-(1S,2R)-2-(cyano(phenyl)(1-((1-(4-(phenylsulfonyl)phenyl)azetidin-3-yl)methyl)piperidin-4-yl)methyl)cyclopentyl carbamate]			14 nM	0.49 µM	0.29 µM
CNC(=O)O[C@H]1CCC[C@@H]1[C@](C#N)(c1ccccc1)C1CCN(CC2CN(c3ccc(S(=O)(=O)c4ccncc4)cc3)C2)CC1 (mixture of isomers) [compound 353, rac-(1S,2R)-2-((S)-cyano(phenyl)(1-((1-(4-(pyridin-4-ylsulfonyl)phenyl)azetidin-3-yl)methyl)piperidin-4-yl)methyl)cyclopentyl methylcarbamate]			6 nM	0.25 µM	0.075 µM
CCc1cnccc1S(=O)(=O)c1ccc(N2CC(CN3CCC(C4(C5CCCC5)CN(CC)Cc5ccccc54)CC3)C2)cc1 (stereo not drawn) [compound 156, 4-cyclopentyl-2-ethyl-4-(1-((1-(4-((3-ethylpyridin-4-yl)sulfonyl)phenyl)azetidin-3-yl)methyl)piperidin-4-yl)-1,2,3,4-tetrahydroisoquinoline]	1.8 µM	0.654 µM	8 nM		
COC(=O)N[C@H]1CCC[C@@H]1C(Cn1ccnc1)(c1ccccc1)C1CCN(CC2CN(c3ccc(S(=O)(=O)c4cnn(C)c4)cc3)C2)CC1 (mixture of isomers) [compound 392, methyl rac-((1S,2R)-2-(2-(1H-imidazol-1-yl)-1-(1-((1-(4-((1-methyl-1H-pyrazol-4-yl)sulfonyl)phenyl)azetidin-3-yl)methyl)piperidin-4-yl)-1-phenylethyl)cyclopentyl) carbamate]			7 nM	0.76 ± 0.32 µM	0.084 ± 0.032 µM
COC(=O)N[C@H]1CCC[C@@H]1C(C#N)(c1ccccc1)C1CCN(CC2CN(c3ccc(S(=O)(=O)c4ccc(C(N)=O)cc4)cc3)C2)CC1 (mixture of isomers) [compound 399, methyl rac-((1S,2R)-2-((1-((1-(4-((4-carbamoylphenyl)sulfonyl)phenyl)azetidin-3-yl)methyl)piperidin-4-yl)(cyano)(phenyl)methyl)cyclopentyl)carbamate]			7 nM	1.63 µM	0.11 µM
CNC(=O)O[C@H]1CCC[C@@H]1C(C#N)(c1ccccc1)C1CCN(CC2CN(c3ccc(S(=O)(=O)c4cnn(C)c4)cc3)C2)CC1 (mixture of isomers) [compound 240, rac-(1S,2R)-2-(cyano(1-((1-(4-((1-methyl-1H-pyrazol-4-yl)sulfonyl)phenyl)azetidin-3-yl)methyl)piperidin-4-yl)(phenyl)methyl) cyclopentyl methylcarbamate]			9 nM	0.54 µM	0.2 µM
CN1Cc2ccccc2C(C2CCN(CC3CN(c4ccc(S(=O)(=O)c5ccncc5)cc4)C3)CC2)([C@H]2CCC[C@@H]2OC(N)=O)C1 (mixture of isomers) [compound 219, rac-(1S,2R)-2-(2-methyl-4-(1-((1-(4-(pyridin-4-ylsulfonyl)phenyl)azetidin-3-yl)methyl)piperidin-4-yl)-1,2,3,4-tetrahydroisoquinolin-4-yl)cyclopentyl carbamate]			3 nM	0.236 µM	0.074 ± 0.011 µM
CC(=O)N[C@H]1CCC[C@@H]1C(Cn1ccnc1)(c1ccccc1)C1CCN(CC2CN(c3ccc(S(=O)(=O)c4ccccc4)cc3)C2)CC1 (mixture of isomers) [compound 381, rac-N-((1S,2R)-2-(2-(1H-imidazol-1-yl)-1-phenyl-1-(1-((1-(4-(phenylsulfonyl)phenyl)azetidin-3-yl)methyl)piperidin-4-yl)ethyl)cyclopentyl) acetamide]			13 nM	0.67 µM	0.14 µM
COC(=O)N[C@H]1CCC[C@@H]1C(C#N)(c1ccccc1)C1CCN(CC2(C)CN(c3ccc(S(=O)(=O)c4cnn(C)c4)cc3)C2)CC1 (mixture of isomers) [compound 398, methyl rac-((1S,2R)-2-(cyano(1-((3-methyl-1-(4-((1-methyl-1H-pyrazol-4-yl)sulfonyl)phenyl)azetidin-3-yl)methyl)piperidin-4-yl)(phenyl)methyl)cyclopentyl) carbamate]			167 nM	> 10 µM	4.57 µM
CCN1Cc2ccccc2C(C2CCCC2)(C2CCN(CC3CN(c4ccc(S(=O)(=O)C5CC5)cc4)C3)C(C)C2)C1 (stereo not drawn) [compound 94, 4-cyclopentyl-4-(1-((1-(4-(cyclopropylsulfonyl)phenyl)azetidin-3-yl)methyl)-2-methylpiperidin-4-yl)-2-ethyl-1,2,3,4-tetrahydroisoquinoline]	2.3 µM	2 µM	29 nM		
CCN1Cc2ccccc2C(C2CCN(CC3CN(c4ccc(S(=O)(=O)c5ccn(C)c5)cc4)C3)CC2)([C@H]2CCC[C@@H]2NC(=O)NC)C1 (mixture of isomers) [compound 375, rac-1-((1S,2R)-2-(2-ethyl-4-(1-((1-(4-((1-methyl-1H-pyrrol-3-yl)sulfonyl)phenyl)azetidin-3-yl)methyl)piperidin-4-yl)-1,2,3,4-tetrahydroisoquinolin-4-yl)cyclopentyl)-3-methylurea]			11 nM	1.73 µM	0.39 µM
O=S(=O)(c1ccc(N2CC(CN3CCC(C4(C5CCCC5)NCCc5ccccc54)CC3)C2)cc1)C1CCC1 (stereo not drawn) [compound 85, 1-(1-((1-(4-(cyclobutylsulfonyl)phenyl)azetidin-3-yl)methyl)piperidin-4-yl)-1-cyclopentyl-1,2,3,4-tetrahydroisoquinoline]	4.2 µM	1.6 µM	36 nM		
O=S(=O)(CC1CCC1)c1ccc(N2CC(CN3CCC(C4(C5CCCC5)NCCc5ccccc54)CC3)C2)cc1 (stereo not drawn) [compound 86, 1-(1-((1-(4-((cyclobutylmethyl)sulfonyl)phenyl)azetidin-3-yl)methyl)piperidin-4-yl)-1-cyclopentyl-1,2,3,4-tetrahydroisoquinoline]	1.2 ± 0.5 µM	0.864 ± 0.017 µM	55 nM		
CCN1Cc2ccccc2C(C2CCCC2)(C2CCN(CC3CN(c4ccc(S(=O)(=O)C(F)(F)F)cc4)C3)CC2)C1 (stereo not drawn) [compound 145, 4-cyclopentyl-2-ethyl-4-(1-((1-(4-((trifluoromethyl)sulfonyl)phenyl)azetidin-3-yl)methyl)piperidin-4-yl)-1,2,3,4-tetrahydroisoquinoline]	3.3 ± 0.5 µM	1.6 ± 0.8 µM	15 nM		
